Structures can show the parent of a compound that is named as a salt. Where two headings read alike, the source gives them in different places.
Legend:
[1] = molecular target: T1, Rat recombinant PDE10A (rPDE10A2) (Rattus norvegicus, UniProt Q9QYJ6); experiment: In vitro assay PDE10A (SPA, 3H-cAMP); format: biochemical
T1 construct: inferred from the Ni metal chelate purification; made in house; host or cells: Sf9 insect cells (baculovirus)
T1 sequence (Q9QYJ6 1-794): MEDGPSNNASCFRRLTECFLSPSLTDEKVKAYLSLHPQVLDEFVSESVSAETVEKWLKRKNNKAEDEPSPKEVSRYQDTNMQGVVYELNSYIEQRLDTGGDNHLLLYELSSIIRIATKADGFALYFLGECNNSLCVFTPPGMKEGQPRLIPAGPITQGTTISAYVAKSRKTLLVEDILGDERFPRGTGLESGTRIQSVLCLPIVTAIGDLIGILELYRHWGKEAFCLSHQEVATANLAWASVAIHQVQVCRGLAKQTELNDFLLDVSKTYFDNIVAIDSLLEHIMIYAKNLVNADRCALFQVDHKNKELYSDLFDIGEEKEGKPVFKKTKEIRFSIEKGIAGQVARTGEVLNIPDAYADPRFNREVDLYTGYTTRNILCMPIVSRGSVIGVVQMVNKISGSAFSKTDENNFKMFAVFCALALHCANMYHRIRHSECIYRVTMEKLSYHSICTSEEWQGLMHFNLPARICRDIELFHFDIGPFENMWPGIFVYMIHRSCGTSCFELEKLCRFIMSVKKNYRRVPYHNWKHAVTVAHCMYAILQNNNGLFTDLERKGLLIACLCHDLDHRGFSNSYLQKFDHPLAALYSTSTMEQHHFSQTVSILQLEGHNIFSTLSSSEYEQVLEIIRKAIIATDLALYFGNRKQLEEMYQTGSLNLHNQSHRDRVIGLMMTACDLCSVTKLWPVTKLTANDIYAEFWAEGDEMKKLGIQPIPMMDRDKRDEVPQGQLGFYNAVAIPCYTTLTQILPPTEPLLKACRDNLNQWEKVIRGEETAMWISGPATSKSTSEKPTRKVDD
In short: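 Scintillation proximity read-out (cpm) of 3H-cAMP hydrolysis after 60 min at room temperature, with enzyme-free blanks and 1% DMSO controls. Enzyme was Sf9-expressed, Ni-sepharose-purified rat rPDE10A2; substrate 60 nM cAMP with tracer, buffer Tris pH 7.8 containing MgCl2 and EGTA.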

[2] = system: apomorphine-induced stereotypy in rats; experiment: Apomorphine-induced stereotypy in rats (APO); format: in vivo; conditions: Rattus norvegicus
Method: Apomorphine (1.0 mg/kg, i.v.)-induced stereotypy (compulsive sniffing, licking, chewing) was scored every 5 min over the first hour after injection of apomorphine, following a 1 hour interval pre-treatment with the test compound. The score system was: (3) pronounced, (2) moderate, (1) slight, and (0) absent.

[3] = molecular target: other members of the PDE family (Homo sapiens, UniProt O00408); experiment: In vitro PDE selectivity assay (SPA), other members of the PDE family (protocols in Table A); format: biochemical; conditions: hPDE2A; read-out: PDE 2A (expressed as pIC50) (converted)
Chain of other members of the PDE family (O00408 whole entry): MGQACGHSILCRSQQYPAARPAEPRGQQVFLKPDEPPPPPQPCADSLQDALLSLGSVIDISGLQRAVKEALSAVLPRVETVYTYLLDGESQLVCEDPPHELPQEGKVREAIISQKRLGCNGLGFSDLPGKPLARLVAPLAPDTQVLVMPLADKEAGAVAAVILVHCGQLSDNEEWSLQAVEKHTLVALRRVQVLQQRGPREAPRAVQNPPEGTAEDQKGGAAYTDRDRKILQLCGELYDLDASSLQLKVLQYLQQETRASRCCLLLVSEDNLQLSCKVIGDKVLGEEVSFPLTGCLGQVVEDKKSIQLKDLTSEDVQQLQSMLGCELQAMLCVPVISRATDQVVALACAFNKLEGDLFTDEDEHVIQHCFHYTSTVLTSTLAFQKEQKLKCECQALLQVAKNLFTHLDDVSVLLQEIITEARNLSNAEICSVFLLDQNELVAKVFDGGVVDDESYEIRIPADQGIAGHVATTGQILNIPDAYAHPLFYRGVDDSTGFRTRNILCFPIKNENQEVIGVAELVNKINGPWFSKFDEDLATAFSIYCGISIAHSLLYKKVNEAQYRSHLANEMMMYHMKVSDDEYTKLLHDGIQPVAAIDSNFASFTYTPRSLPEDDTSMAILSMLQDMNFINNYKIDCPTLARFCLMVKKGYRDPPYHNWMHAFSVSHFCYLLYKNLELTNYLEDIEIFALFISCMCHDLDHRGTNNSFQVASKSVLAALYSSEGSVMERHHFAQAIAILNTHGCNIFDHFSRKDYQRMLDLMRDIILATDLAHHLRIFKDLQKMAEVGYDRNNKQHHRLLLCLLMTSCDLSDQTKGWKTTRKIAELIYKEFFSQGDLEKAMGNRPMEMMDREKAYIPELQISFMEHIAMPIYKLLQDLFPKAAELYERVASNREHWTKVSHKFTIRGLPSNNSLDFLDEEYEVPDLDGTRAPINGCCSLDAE
Method: Rat recombinant PDE10A (rPDE10A2) was expressed in Sf9 cells using a recombinant rPDE10A baculovirus construct. Cells were harvested after 48 h of infection and the rPDE10A protein was purified by metal chelate chromatography on Ni-sepharose 6FF. Tested compounds were dissolved and diluted in 100% DMSO to a concentration 100 fold of the final concentration in the assay. Compound dilutions (0.4 μl) were added in 384 well plates to 20 μl of incubation buffer (50 mM Tris pH 7.8, 8.3 mM MgCl2, 1.7 mM EGTA). 10 μl of rPDE10A enzyme in incubation buffer was added and the reaction was started by addition of 10 μl substrate to a final concentration of 60 nM cAMP and 0.008 μCi ^3H-cAMP. The reaction was incubated for 60 minutes at room temperature. After incubation, the reaction was stopped with 20 μl of stop solution consisting of 17.8 mg/ml PDE SPA (scintillation proximity assay) beads. After sedimentation of the beads during 30 minutes the radioactivity was measured in a Perkin Elmer Topcount scintillation counter and results were expressed as cpm. For blanc values the enzyme was omitted from the reaction and replaced by incubation buffer. Control values were obtained by addition of a final concentration of 1% DMSO instead of compound. The same assay principle is applied for the measurement of the affinity of the compound for other members of the PDE family with appropriate modifications in incubation buffer, substrate concentration, incubation time and stop solution. An overview of the different protocols is presented in table A. A best fit curve is fitted by a minimum sum of squares method to the plot of % of control value substracted with blanc value versus compound concentration and the half maximal inhibitory concentration (IC50) value is derived from this curve.
The compounds of the invention are generally selective for PDE10 compared to other PDEs and there are a few that also have affinity for PDE1B1, 4D3 and 5A3.

PDE10 = molecular target: T2, PDE10 (Rattus norvegicus, UniProt Q9QYJ6); experiment: PDE10 occupancy ([3H]-MP-10, striatum); format: in vivo; conditions: for ED50 / receptor occupancy at 10 mg/kg: rat; for receptor occupancy at 10 mg/kg: single dose 10 mg/kg
T2 construct: from tissue; host or cells: rat brain sections, striatum (in vivo dosing, ex vivo autoradiography)
T2 sequence (Q9QYJ6 1-794): T1 sequence (Q9QYJ6 1-794)
Method: Dose-response or single dose experiments were performed to measure PDE10 occupancy 1 hour after subcutaneous (s.c.) or oral (p.o.) administration. Male Wistar rats (200 g) were treated by s.c. or p.o. administration of various PDE10 inhibitors. The PDE10 radioligand [^3H]-MP-10 (10 μCi/animal) was injected intravenously (i.v.) 30 minutes before sacrifice. Brains were immediately removed from the skull and rapidly frozen. Twenty μm-thick brain sections were cut using a cryostat-microtome, thaw-mounted on microscope slides and loaded in a β-imager to quantify PDE10 occupancy in the striatum.

[4] = Table 4 in vitro selectivity, read-out: PDE 10A2 (expressed as pIC50) (converted)
[5] = pIC50 corresponds to the −log IC50 expressed in mol/L, read-out: PDE10A2 pIC50 (converted)
[6] = dose at which 50% of the tested animals show the effect, ≧: active in 30% of the animals at the indicated dose, ≦: active in 60%
[7] = po, n.d.: found not active at threshold dose 2.5 mg/kg or 10 mg/kg (a), * not soluble, tested orally as a suspension
[8] = oral, read-out: SD po % occupancy at 10 mg/kg
[9] = n.d.: found not active at threshold dose 2.5 mg/kg or 10 mg/kg (a), not further tested
[10] = sc, subcutaneous, read-out: SD sc % occupancy at 10 mg/kg

Which results are given for `COC(C)(C)Cc1ccc(-c2c(C)nc3c(-c4ccncc4)ccnn23)cn1` [compound 7, 3-[6-(2-methoxy-2-methylpropyl)-3-pyridinyl-2-methyl-8-(4-pyridinyl)-imidazol-1,2-b]pyridazine]?
IC50 [1, 4]: 25.7 nM; IC50 [1, 5]: 25.7 nM; ED50 [2, 6]: 0.3 mg/kg; IC50 [3]: > 10000 nM; ED50 (PDE10; sc, dose response, subcutaneous administration, read-out: PDE10 in vivo occupancy ED50 sc): 1.6 mg/kg

Which IC50 [1, 5] does the source give for `COCCOc1ccc(-c2c(C)nc3c(-c4ccncc4)ccnn23)cn1` [compound 21a, 3-[6-(2-methoxyethoxy)-3-pyridinyl]-2-methyl-8-(4-pyridinyl)-imidazo[1,2-b]pyridazine hydrochloride salt] here?
Its IC50 is 151 nM.

What about the “PDE10 in vivo occupancy ED50 po” value (PDE10; dose response, oral administration) of the same compound?
The value was 14 mg/kg.

What about the “PDE10 in vivo occupancy ED50 sc” value (PDE10; dose response, subcutaneous administration) of the same compound?
Its value is 2.6 mg/kg.

Which IC50 [1, 4] does the source give for `COC(C)(C)Cc1ccc(-c2c(C)nc3c(-c4ccncc4)cc(C)nn23)cn1` [compound 48, 3-[6-(2-methoxy-2-methylpropyl)-3-pyridinyl]-2,6-dimethyl-8-(4-pyridinyl)-imidazo[1,2-b]pyridazine] here?
Its IC50 is 115 nM.

And the IC50 [1, 5]?
The IC50 was 115 nM.

What about the ED50 [2, 6] of the same compound?
Its ED50 is at least 2.5 mg/kg.

What about the IC50 [3] of the same compound?
Its IC50 is over 10000 nM.

What about the ED50 (PDE10; dose response, oral administration, read-out: PDE10 in vivo occupancy ED50 po) of the same compound?
The ED50 was 4.3 mg/kg.

Which IC50 [1, 5] does the source give for `Cc1nc2c(N3CCOCC3)ccnn2c1-c1ccc(OCC(F)(F)F)nc1` [compound 62, 2-methyl-8-(4-morpholinyl)-3-[6-(2,2,2-trifluoroethoxy)-3-pyridinyl]-imidazo[1,2-b]pyridazine] here?
The IC50 was 257 nM.

And the ED50 [2, 7]?
The ED50 was over 2.5 mg/kg.

What about the receptor occupancy at 10 mg/kg (PDE10; [8]) of the same compound?
The receptor occupancy at 10 mg/kg was 38%.

What does the source list for `Cc1nc2c(N3CCOCC3)ccnn2c1-c1ccc(OCC2CC2)nc1` [compound 65, 3-[6-(cyclopropylmethoxy)-3-pyridinyl]-2-methyl-8-(4-morpholinyl)-imidazo[1,2-b]pyridazine]?
IC50 [1, 5]: 162 nM; ED50 [2, 9]: > 10 mg/kg; receptor occupancy at 10 mg/kg (PDE10; [10]): 17%

Which IC50 [1, 5] does the source give for `Cc1nc2c(N3CCOCC3)ccnn2c1-c1ccc(OC(C)C)nc1` [compound 66, 2-methyl-3-[6-(1-methylethoxy)-3-pyridinyl]-8-(4-morpholinyl)-imidazo[1,2-b]pyridazine] here?
Its IC50 is 178 nM.

And the ED50 [2, 9]?
Its ED50 is over 10 mg/kg.

What about the receptor occupancy at 10 mg/kg (PDE10; [10]) of the same compound?
The receptor occupancy at 10 mg/kg was 29%.

How did the IC50 [1, 5] turn out when `Cc1nc2c(N3CCOCC3)ccnn2c1-c1ccnc(OC(C)C)c1` [compound 67, 2-methyl-3-[2-(1-methylethoxy)-4-pyridinyl]-8-(4-morpholinyl)-imidazo[1,2-b]pyridazine] was run?
The IC50 was 87.1 nM.

And the ED50 [2, 9]?
The ED50 was over 10 mg/kg.

What about the receptor occupancy at 10 mg/kg (PDE10; [10]) of the same compound?
The receptor occupancy at 10 mg/kg was 1%.

What does the source list for `COCCn1cc(-c2c(C)nc3c(-c4ccncc4)ccnn23)cn1` [compound 114, 3-[1-(2-methoxyethyl)-1H-pyrazol-4-yl]-2-methyl-8-(4-pyridinyl)-imidazo[1,2-b]pyridazine]?
IC50 [1, 5]: 52.5 nM; ED50 [2, 9]: > 2.5 mg/kg; receptor occupancy at 10 mg/kg (PDE10; [10]): 72%

With `COCCn1cc(-c2c(C(C)C)nc3c(-c4ccncc4)ccnn23)cn1` [compound 121, 3-[1-(2-methoxyethyl)-1H-pyrazol-4-yl]-2-(1-methylethyl)-8-(4-pyridinyl)-imidazo[1,2-b]pyridazine] as the compound, how does the IC50 [1, 5] read?
The IC50 was 234 nM.

What about the ED50 [2, 9] of the same compound?
Its ED50 is over 10 mg/kg.

And the receptor occupancy at 10 mg/kg (PDE10; [10])?
Its receptor occupancy at 10 mg/kg is 0%.

Which IC50 [1, 5] does the source give for `Cc1nc2c(N3CCOCC3)ccnn2c1-c1cnn(CC(F)(F)C2CC2)c1` [compound 128, 3-[1-(2-cyclopropyl-2,2-difluoroethyl)-1H-pyrazol-4-yl]-2-methyl-8-(4-morpholinyl)-imidazo[1,2-b]pyridazine] here?
The IC50 was 50.1 nM.

And the ED50 [2, 9]?
The ED50 was over 10 mg/kg.

And the receptor occupancy at 10 mg/kg (PDE10; [10])?
Its receptor occupancy at 10 mg/kg is 40%.

Which results are given for `COCCn1cc(-c2c(C)nc3c(N4CCOCC4)cc(C(F)(F)F)nn23)cn1` [compound 130, 3-[1-(2-methoxyethyl)-1H-pyrazol-4-yl]-2-methyl-8-(4-morpholinyl)-6-(trifluoromethyl)-imidazo[1,2-b]pyridazine]?
IC50 [1, 5]: 219 nM; ED50 [2, 7]: > 10 mg/kg; receptor occupancy at 10 mg/kg (PDE10; [8]): 6%

`CCc1nc2c(-c3ccncc3)ccnn2c1-c1cnn(CCOC)c1` [compound 132, 2-ethyl-3-[1-(2-methoxyethyl)-1H-pyrazol-4-yl]-8-(4-pyridinyl)-imidazo[1,2-b]pyridazine] was tested. Which IC50 [1, 5] did it give?
Its IC50 is 70.8 nM.

What about the ED50 [2, 9] of the same compound?
Its ED50 is over 10 mg/kg.

What about the receptor occupancy at 10 mg/kg (PDE10; [10]) of the same compound?
Its receptor occupancy at 10 mg/kg is 44%.

Which IC50 [1, 5] does the source give for `Cc1nc2c(N3CCOCC3)ccnn2c1-c1cnn(CC(F)(F)F)c1` [compound 137, 2-methyl-8-(4-morpholinyl)-3-[1-(2,2,2-trifluoroethyl)-1H-pyrazol-4-yl]-imidazo[1,2-b]pyridazine] here?
Its IC50 is 25.7 nM.

What about the ED50 [2, 9] of the same compound?
The ED50 was over 2.5 mg/kg.

What about the receptor occupancy at 10 mg/kg (PDE10; [8]) of the same compound?
The receptor occupancy at 10 mg/kg was 12%.

`FC(F)(F)Cn1cc(-c2c(C3CC3)nc3c(N4CCOCC4)ccnn23)cn1` [compound 138, 2-cyclopropyl-8-(4-morpholinyl)-3-[1-(2,2,2-trifluoroethyl)-1H-pyrazol-4-yl]-imidazo[1,2-b]pyridazine] was tested. Which IC50 [1, 5] did it give?
The IC50 was 39.8 nM.

And the ED50 [2, 7]?
The ED50 was over 10 mg/kg.

And the receptor occupancy at 10 mg/kg (PDE10; [8])?
The receptor occupancy at 10 mg/kg was 11%.

For `COCCn1cc(-c2c(OC)nc3c(N4CCOCC4)ccnn23)cn1` [compound 140, 2-methoxy-3-[1-(2-methoxyethyl)-1H-pyrazol-4-yl]-8-(4-morpholinyl)-imidazo[1,2-b]pyridazine], which IC50 [1, 5] is on record?
Its IC50 is 174 nM.

And the ED50 [2, 9]?
Its ED50 is over 10 mg/kg.

And the receptor occupancy at 10 mg/kg (PDE10; [8])?
The receptor occupancy at 10 mg/kg was 0%.
